Reference: the supplement of paper PMC10307832

Tests used:
Assay in all cases: relative viability (nuclei count vs DMSO), 5 days (fraction); higher = more cells survive
Wnt-C59 + Phenformin = compound: CC1=NC=CC(=C1)C2=CC=C(C=C2)CC(=O)NC3=CC=C(C=C3)C4=CN=CC=C4 [Wnt-C59] + N=C(N)NC(=N)NCCc1ccccc1 [Phenformin] (partner 250 µM)
Procedure, shortened: (§1)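 Relative viability divides the nuclei count in treated wells by that in vehicle wells. Lung cancer cell lines were seeded in 1536-well plates, dosed by pin tool the next day, and fixed and stained after 5 days in one step with final 0.05% Triton X-100, 1% formaldehyde and 1 ug/ml Hoechst. Dosing was a single drug or a fixed anchor-drug dose plus five library-drug doses (not always all listed) in √10 steps, and values are medians of duplicate plates imaged at 4×.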

Lapatinib + OSI-027 = compound: CS(=O)(=O)CCNCc1ccc(-c2ccc3ncnc(Nc4ccc(OCc5cccc(F)c5)c(Cl)c4)c3c2)o1 [Lapatinib] + COc1cccc2cc(-c3nc([C@H]4CC[C@H](C(=O)O)CC4)n4ncnc(N)c34)[nH]c12 [OSI-027] (partner 0.5 µM)
Procedure, shortened: as §1

Wnt-C59 + Linsitinib = compound: CC1=NC=CC(=C1)C2=CC=C(C=C2)CC(=O)NC3=CC=C(C=C3)C4=CN=CC=C4 [Wnt-C59] + C[C@]1(O)C[C@@H](c2nc(-c3ccc4ccc(-c5ccccc5)nc4c3)c3c(N)nccn32)C1 [Linsitinib] (partner 1 µM)
Procedure, shortened: as §1

Lapatinib + Palbociclib = compound: CS(=O)(=O)CCNCc1ccc(-c2ccc3ncnc(Nc4ccc(OCc5cccc(F)c5)c(Cl)c4)c3c2)o1 [Lapatinib] + CC(=O)c1c(C)c2cnc(Nc3ccc(N4CCNCC4)cn3)nc2n(C2CCCC2)c1=O [Palbociclib] (partner 0.5 µM)
Procedure, shortened: as §1

Cell Line | relative viability (Wnt-C59 + Phenformin; first compound 0.001 µM) | relative viability (Wnt-C59 + Phenformin; first compound 0.01 µM) | relative viability (Wnt-C59 + Phenformin; first compound 0.03162 µM) | relative viability (Wnt-C59 + Phenformin; first compound 0.1 µM) | relative viability (Lapatinib + OSI-027; first compound 0.02 µM) | relative viability (Lapatinib + OSI-027; first compound 0.06325 µM) | relative viability (Lapatinib + OSI-027; first compound 0.2 µM) | relative viability (Lapatinib + OSI-027; first compound 0.6325 µM) | relative viability (Lapatinib + OSI-027; first compound 2 µM) | relative viability (Wnt-C59 + Linsitinib; first compound 0.001 µM) | relative viability (Wnt-C59 + Linsitinib; first compound 0.01 µM) | relative viability (Wnt-C59 + Linsitinib; first compound 0.03162 µM) | relative viability (Wnt-C59 + Linsitinib; first compound 0.1 µM) | relative viability (Lapatinib + Palbociclib; first compound 0.02 µM) | relative viability (Lapatinib + Palbociclib; first compound 0.06325 µM) | relative viability (Lapatinib + Palbociclib; first compound 0.2 µM) | relative viability (Lapatinib + Palbociclib; first compound 0.6325 µM) | relative viability (Lapatinib + Palbociclib; first compound 2 µM)
NCI-H1666 | 0.54 | 0.498 | 0.531 | 0.561 | 0.828 | 0.732 | 0.645 | 0.657 | 0.316 | 0.941 | 0.682 | 0.885 | 0.874 | 0.63 | 0.632 | 0.674 | 0.65 | 0.633
NCI-H1792 | 0.363 | 0.301 |  | 0.22 | 0.665 |  | 0.558 | 0.533 | 0.31 | 0.557 | 0.5 | 0.465 | 0.549 | 0.618 |  | 0.614 | 0.559 | 0.6
LCLC-103H | 0.352 | 0.334 | 0.366 | 0.329 | 0.409 | 0.372 | 0.429 | 0.417 | 0.436 | 1.08 | 1.08 | 0.986 | 1.09 | 0.445 | 0.486 | 0.478 | 0.533 | 0.441
BEN | 0.292 | 0.27 | 0.269 | 0.247 |  | 0.279 | 0.298 | 0.288 | 0.25 | 0.915 | 0.948 | 1.02 | 0.88 | 0.455 | 0.469 | 0.472 | 0.432 | 0.468
COR-L 105 | 0.48 | 0.509 | 0.477 | 0.479 | 0.638 | 0.362 | 0.449 | 0.413 | 0.269 | 1.26 | 0.988 | 0.765 | 0.804 | 0.418 | 0.387 | 0.352 | 0.407 | 0.338
LC-2-ad | 0.68 | 0.546 | 0.659 | 0.545 |  | 0.49 | 0.767 | 0.764 | 0.619 | 0.864 | 0.811 | 0.944 | 0.776 |  | 0.522 | 0.527 | 0.501 | 0.476
NCI-H358 | 0.343 | 0.257 | 0.431 | 0.337 | 0.567 | 0.285 | 0.439 | 0.285 | 0.215 | 0.83 | 0.641 | 0.923 | 0.682 | 0.16 | 0.124 | 0.13 | 0.132 | 0.104
HARA | 0.458 | 0.49 | 0.528 | 0.447 |  | 0.214 | 0.474 | 0.328 | 0.239 | 1.02 | 0.865 | 1.16 | 0.899 | 0.194 | 0.195 | 0.202 | 0.233 | 0.224
CAL-12T | 0.564 | 0.581 | 0.576 | 0.566 |  | 0.32 | 0.497 | 0.319 | 0.313 | 0.759 | 0.752 | 0.776 | 0.766 | 0.197 | 0.304 | 0.319 | 0.329 | 0.137
NCI-H1975 | 0.396 | 0.393 | 0.395 | 0.406 | 0.699 | 0.472 | 0.494 | 0.568 | 0.446 | 1.01 | 0.88 | 1.01 | 0.922 | 0.285 | 0.492 | 0.518 | 0.575 | 0.311
PC-14 | 0.583 | 0.713 | 0.478 | 0.748 | 0.464 | 0.743 | 0.824 | 0.794 | 0.152 | 0.936 | 1.04 | 0.958 | 0.944 | 0.497 | 0.526 | 0.451 | 0.373 | 0.0812
NCI-H1944 | 0.197 | 0.188 | 0.19 | 0.197 | 0.28 | 0.237 | 0.356 | 0.361 | 0.31 | 1.13 | 1.11 | 1.26 | 1.12 | 0.304 | 0.253 | 0.265 | 0.275 | 0.225
NCI-H596 | 0.746 | 0.71 | 0.923 | 0.722 |  | 0.52 | 0.566 | 0.671 | 0.416 | 1.04 | 0.954 | 1.16 | 1.1 |  |  |  |  | 
ChaGo-K-1 | 0.557 | 0.466 | 0.531 | 0.539 | 0.341 | 0.391 | 0.585 | 0.53 | 0.462 |  |  |  |  | 0.868 | 0.9 | 0.939 | 0.909 | 0.912
A549 | 0.213 | 0.144 | 0.253 | 0.169 |  |  |  |  |  | 0.568 | 0.498 | 0.555 | 0.504 |  |  |  |  | 
NCI-H1299 |  |  |  |  |  |  |  |  |  | 0.965 | 1.07 | 0.961 | 1 |  |  |  |  | 
NCI-H2342 | 0.616 | 0.63 | 0.756 | 0.746 | 0.552 | 0.503 | 0.506 | 0.562 | 0.55 |  |  |  |  | 0.504 | 0.491 | 0.501 | 0.553 | 0.484
SW 900 | 0.633 | 0.607 | 0.555 | 0.574 |  | 0.576 | 0.532 | 0.496 | 0.488 |  |  |  |  |  | 0.514 | 0.554 | 0.586 | 0.43
NCI-H1703 |  |  |  |  |  |  |  |  |  | 0.721 | 0.631 | 0.739 | 0.899 |  |  |  |  | 
NCI-H1650 | 0.449 | 0.483 | 0.454 | 0.391 | 0.437 | 0.456 | 0.59 | 0.555 | 0.338 |  |  |  |  | 0.315 | 0.314 | 0.379 | 0.3 | 0.299
NCI-H1623 | 0.582 | 0.562 | 0.607 | 0.572 | 0.377 | 0.367 | 0.407 | 0.387 | 0.246 |  |  |  |  |  |  |  |  | 
NCI-H1563 | 0.688 | 0.673 | 0.693 | 0.666 | 0.716 | 0.654 | 0.772 | 0.715 | 0.715 | 1.24 | 1.2 | 1.34 | 1.13 |  |  |  |  | 
EBC-1 |  |  |  |  |  |  |  |  |  | 0.927 | 0.912 | 0.925 | 0.814 |  |  |  |  | 
